The values below come from PubChem BioAssay AID463223 (The Scripps Research Institute Molecular Screening Center, 2010).

The assay deals with Serine/threonine-protein phosphatase 5 (Homo sapiens) (UniProt P53041). In words: PP5 inhibitors on phosphohistone substrate, late-stage follow-up, PP5 inhibitor project, biochemical, radiolabel, single concentration (AID 463223). As to conditions: purified PP5c, 33P-phosphohistone radiolabel assay, scintillation counting, 10 min; at 10 µM; hits give high values.

The source made the active and inactive calls. The rule behind the calls is not given here.

Serine/threonine-protein phosphatase 5 (Homo sapiens), sequence (P53041 whole entry, looked up): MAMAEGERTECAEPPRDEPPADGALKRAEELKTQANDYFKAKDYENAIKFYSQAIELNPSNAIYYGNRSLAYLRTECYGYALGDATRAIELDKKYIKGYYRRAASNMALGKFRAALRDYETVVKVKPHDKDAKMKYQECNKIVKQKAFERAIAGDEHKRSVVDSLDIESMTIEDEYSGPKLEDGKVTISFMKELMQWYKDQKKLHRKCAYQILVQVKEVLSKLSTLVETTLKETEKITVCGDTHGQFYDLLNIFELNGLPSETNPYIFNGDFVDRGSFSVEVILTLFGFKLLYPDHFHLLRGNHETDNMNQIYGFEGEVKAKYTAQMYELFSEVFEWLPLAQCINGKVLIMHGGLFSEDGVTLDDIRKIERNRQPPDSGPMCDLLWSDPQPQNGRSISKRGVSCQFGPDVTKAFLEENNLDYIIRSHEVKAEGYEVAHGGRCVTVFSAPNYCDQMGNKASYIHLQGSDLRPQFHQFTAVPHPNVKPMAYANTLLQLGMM

The term inhibition denotes the relative decrease from the control value, in per cent. As for `COc1ccc(OCCCC(=O)Nc2nc(-c3ccccn3)cs2)cc1`, the inhibition is -1.62% (inactive).
For `CCOC(=O)c1cnc(-n2nc(C)cc2C)nc1NC(C)c1ccccc1` (centres undefined) the value was 0.17% (inactive).
For `COc1ccc(NC(=S)Nc2ccc3nsnc3c2)cc1`, the inhibition was -2.27% (inactive).
Consider `Nc1cc2nsnc2cc1Br`, for which the inhibition is 1.86% (inactive).
For `O=C(O)C1C2CCC(O2)C1C(=O)NC1CCCCC1` (centres undefined) the value was 45.9%; for `COc1ccc(Cn2c(N)c(C(=O)NCc3ccco3)c3nc4ccccc4nc32)cc1OC`, 0.41% (inactive); for `CCOC(=O)c1sc(N2C(=O)C(O)=C(C(=O)c3ccco3)C2c2cccc([N+](=O)[O-])c2)nc1C` (centres undefined), 9.04% (inactive).
For `COc1cnc(-c2ccccn2)nc1Oc1cccc(Cl)c1` the value was -1.35% (inactive); for `CC(C)(CS(=O)(=O)[O-])NC(=O)CC[N+](C)(C)CCO`, 2.71% (inactive); for `c1ccc(-c2nccc(-c3ccc(-n4cnc5ccccc54)cc3)n2)nc1`, 9.23% (inactive).
For the compound `O=C(NC1(O)C(=O)c2ccccc2C1=O)c1c(Cl)cccc1Cl`, the inhibition was -1.34% (inactive).
Consider `CCCCn1c(NC(=O)c2ccco2)c(C(=O)OCC)c2nc3ccccc3nc21`, for which the inhibition was 2.8% (inactive).
For `COc1cnc(-c2ccccn2)nc1Sc1ccc(F)cc1` the value was -3.12% (inactive); for `CCOC(=O)c1cnc(-n2nc(C)cc2C)nc1NCCc1ccccc1`, 0.06% (inactive).
Regarding `O=C(O)c1cc(-c2ccc(Cl)c(Cl)c2)n(-c2ccccc2)n1`, the inhibition was 0.56% (inactive).
For `Cc1ccc(C(=O)NNc2cc(N3CCCC3)nc(N3CCCC3)n2)cc1` the value was 0.83% (inactive); for `O=C1CCCC2=C1C1(O)C(=O)c3ccccc3C1(O)O2` (centres undefined), 4.95% (inactive); for `Oc1ccccc1/C=N/Nc1cc(N2CCCC2)nc(N2CCCC2)n1`, 3.34% (inactive).
Take `COc1cnc(-c2ccccn2)nc1Sc1ccc(C)cc1`: the inhibition is -1.26% (inactive).
As to `CCOC(=O)c1nn(-c2ccc(C)cc2)c(=O)c2c(N)scc12`, the inhibition is 0.85% (inactive).
For `COc1cnc(-c2ccccn2)nc1Sc1cccc(Cl)c1` the value was -0.66% (inactive); for `COc1cnc(-c2ccccn2)nc1Sc1ccccc1`, -1.46% (inactive); for `CCOc1ccc(NC(=S)Nc2ccc3nsnc3c2)cc1`, -0.34% (inactive).
For `Oc1ccc(/C=N/Nc2cc(N3CCOCC3)nc(N3CCOCC3)n2)c(O)c1` the value was 0.87% (inactive).
On to `Cc1nnc(NC(=O)C2C3C=CC(O3)C2C(=O)O)s1` (centres undefined), for which the inhibition is 16%.
On to `Nc1nc(-c2ccccn2)nc(N)c1Cc1ccc(Cl)cc1Cl`, for which the inhibition is -1.92% (inactive).
Turning to `O=S(=O)(Cc1cc(NCc2ccccc2)nc(-c2ccccn2)n1)c1ccccc1`, the inhibition was 8.88% (inactive).
As for `CCOC(=O)c1cnc(-n2nc(C)cc2C)nc1NCc1ccccc1`, the inhibition is 3.11% (inactive).
Take `CCOC(=O)c1cnc(-n2cc(C)cn2)nc1NCc1ccc2c(c1)OCO2`: the inhibition is -0.82% (inactive).
On to `COc1ccc(CN2C(=O)Cc3c2nc(N)c2c(N)nc(N4CCCCC4)c(C#N)c32)cc1`, for which the inhibition is -2.57% (inactive).
Regarding `Cc1ccc(-n2nc(C(=O)O)cc2-c2ccc(Cl)cc2)cc1`, the inhibition was 1.91% (inactive).
For `Clc1ccc(-n2nnnc2-c2cnc(-c3ccccn3)nc2-c2cccs2)cc1` the value was -0.04% (inactive); for `CCCCN(CC)c1nc(N)c2c(N)nc(OCC)cc2c1C#N`, 2.68% (inactive).
Take `O=C(NC1(O)C(=O)c2ccccc2C1=O)c1ccc(C(F)(F)F)cc1`: the inhibition is -0.52% (inactive).
For `O=C(NC1(O)C(=O)c2ccccc2C1=O)c1ccccc1`, the inhibition is 1.84% (inactive).
Regarding `Cc1ccc(C(=O)NC2(O)C(=O)c3ccccc3C2=O)cc1C`, the inhibition was 2.14% (inactive).
For `COc1cnc(-c2ccccn2)nc1Oc1cccc(C(F)(F)F)c1` the value was -2.17% (inactive); for `O=C1Nc2ccccc2N2CCCC12` (centres undefined), -0.58% (inactive).
Take `CCOC(=O)C1=C(C)OC2(O)c3ccccc3C(=O)C12O` (centres undefined): the inhibition was -1.47% (inactive).
Take `COc1ccc2c(Cl)c(C(=O)N/N=C/c3ccc4c(c3)OCO4)sc2c1`: the inhibition is -0.4% (inactive).
For `CCOC(=O)c1sc2nc3c(SCC(=O)O)cc(C(=O)c4cc(F)ccc4O)cn3c(=O)c2c1C` the value was 14.5% (inactive); for `O=C(O)c1cc(-c2ccc(Cl)cc2)n(-c2cccc(Cl)c2)n1`, 2.43% (inactive); for `c1ccc(Nc2nc(-c3ccccn3)cs2)cc1`, -1.08% (inactive).
Regarding `COc1ccc(Cl)cc1C(=O)Nc1cccc(-c2ccc3nncn3n2)c1`, the inhibition is -1.12% (inactive).
For `O=C(O)c1n[nH]nc1-c1ccccc1` the value was 31.1%; for `COc1ccc(NC(=O)C2C3CCC(O3)C2C(=O)O)c(OC)c1` (centres undefined), 49.1%; for `COc1ccc(C(=O)c2nccc3cc(OC)c(OC)cc23)cc1OC`, 1.93% (inactive).
For `O=c1[nH]c(Nc2ccccc2)cc2ccccc12` the value was 0.47% (inactive); for `CCCN(CC1CC1)c1nc(N)c2c(N)nc(OC)cc2c1C#N`, 0.96% (inactive).
For the compound `O=C(O)c1cc(-c2ccc(Cl)c(Cl)c2)n(-c2ccc(F)cc2)n1`, the inhibition is -0.91% (inactive).
For `Oc1cccc(/C=N/Nc2cc(N3CCCC3)nc(N3CCCC3)n2)c1` the value was 1.73% (inactive); for `COc1cc(Br)c(C(=O)c2nccc3cc(OC)c(OC)cc23)cc1OC`, 1.9% (inactive); for `COc1ccccc1Sc1nc(-c2ccccn2)ncc1OC`, -2.42% (inactive).
Consider `COc1cnc(-c2ccccn2)nc1Sc1ccccc1Cl`, for which the inhibition was 0.33% (inactive).
For `CCn1c2ccccc2c2cc(NC(=O)COC(=O)c3ccc(NC(=O)CC#N)cc3)ccc21` the value was -0.66% (inactive); for `COc1cnc(-c2ccccn2)nc1Sc1ccc(Cl)cc1`, -3.05% (inactive).
For `COc1ccc(Sc2nc(-c3ccccn3)ncc2OC)cc1`, the inhibition was 1.12% (inactive).
Regarding `O=C(Nc1nc(-c2ccccn2)cs1)C1CC(=O)N(c2ccc3c(c2)OCCO3)C1` (centres undefined), the inhibition is -3.02% (inactive).
For `Cc1[nH]n(-c2ccccc2)c(=O)c1C(c1ccc([N+](=O)[O-])cc1)c1c(C)[nH]n(-c2ccccc2)c1=O` the value was 3.51% (inactive).
Consider `CCOC(=O)c1cnc(-n2nc(C)cc2C)nc1NC1CCCCC1`, for which the inhibition is 1.15% (inactive).
For `CC(=O)C(C(C)=O)C1(O)C(=O)c2ccccc2C1=O` the value was 2.52% (inactive).
For `N#Cc1c(-c2ccc(Cl)cc2)cc(-c2cccs2)nc1SCC(=O)O` the value was 12.1% (inactive); for `N#Cc1c(N2CCCC(O)C2)nc(N)c2c(N)nc3c(c12)CC(=O)N3C12CC3CC(CC(C3)C1)C2` (centres undefined), -0.93% (inactive); for `CN1CCN(C(c2ccccn2)c2cc(Cl)c3cccnc3c2O)CC1` (centres undefined), -2.91% (inactive).
